Data on eleven compounds can be found in US20070249620A1, “Urea Derivative” (priority 2004, published 2007).

Some results are limits rather than exact numbers.

Data set [1] deals with T1, mouse DGAT1 (Mus musculus, UniProt Q9Z2A7).
T1 construct: made in house; host or cells: insect cells (High Five, Sf9, Sf21, etc.), baculovirus expression system (Invitrogen)
T1 sequence (Q9Z2A7 1-498): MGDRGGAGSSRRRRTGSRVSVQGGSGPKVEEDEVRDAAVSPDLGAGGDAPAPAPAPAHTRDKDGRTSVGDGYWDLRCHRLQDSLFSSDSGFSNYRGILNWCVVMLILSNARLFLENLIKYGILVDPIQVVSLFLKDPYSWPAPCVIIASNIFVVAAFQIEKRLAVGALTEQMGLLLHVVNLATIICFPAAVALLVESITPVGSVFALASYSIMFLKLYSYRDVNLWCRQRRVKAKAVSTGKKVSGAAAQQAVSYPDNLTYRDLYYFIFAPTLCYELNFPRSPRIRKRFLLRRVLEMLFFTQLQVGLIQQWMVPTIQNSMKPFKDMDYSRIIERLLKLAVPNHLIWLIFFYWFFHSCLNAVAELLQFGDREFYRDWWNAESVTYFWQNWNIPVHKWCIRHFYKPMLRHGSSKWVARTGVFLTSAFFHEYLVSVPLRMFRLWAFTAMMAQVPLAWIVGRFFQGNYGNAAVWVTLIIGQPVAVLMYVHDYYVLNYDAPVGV
Description: DGAT1 inhibitory effect test (microsome fraction, [14C]-oleoyl-CoA, triglyceride radioactivity by TLC). The settings on record: 0.5 h; concentration of the test compound 0.1 μg/ml; mouse DGAT1 microsomes, 23° C., 30 minutes; read-out: Inhibitory ratio. The class given is biochemical. The gist of the method: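 Baculovirus-expressed mouse DGAT1 insect-cell microsomes (10 μg) were incubated 30 min at 23 °C, pH 8.0, with 0.5 mM 1,2-dioleoyl-sn-glycerol, 30 μM [14C]-oleoyl-CoA and 0.5% Triton X-100. [14C]-triglyceride was quantified after heptane extraction and TLC. Percent inhibition was taken against vehicle control, with 0-min background subtracted.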

The melting point is the temperature of the solid-liquid transition.

Regarding `CCOc1ccccc1NC(=O)Nc1ccc(N2CCN(C(=O)Nc3c(F)cccc3C(F)(F)F)CC2)cc1` [Example 117, 4-{4-[3-(2-ethoxy-phenyl)-ureido]-phenyl}-piperazine-1-carboxylic acid (2-fluoro-6-trifluoromethyl-phenyl)-amide], the melting point lay within 139 to 141 °C. The inhibition at 0.1 µg/mL in data set [1] is at least 50%.
In the same order, the values of `CCOc1ccc(C)cc1NC(=O)Nc1ccc(N2CCN(C(=O)Nc3c(C)cccc3C)CC2)cc1` [Example 118, 4-{4-[3-(2-ethoxy-5-methyl-phenyl)-ureido]-phenyl}-piperazine-1-carboxylic acid (2,6-dimethyl-phenyl)-amide] are 222 to 225 °C and at least 50%.
For `CCOc1ccc(C)cc1NC(=O)Nc1ccc(N2CCN(C(=O)Nc3c(F)cccc3C(F)(F)F)CC2)cc1` [Example 119, 4-{4-[3-(2-ethoxy-5-methyl-phenyl)-ureido]-phenyl}-piperazine-1-carboxylic acid (2-fluoro-6-trifluoromethyl-phenyl)-amide], in that order: 144 to 146 °C and at least 50%.
As for `CCOc1ccc(C)cc1NC(=O)Nc1ccc(N2CCN(C(=O)Nc3ccc(C)cc3Cl)CC2)cc1` [Example 120, 4-{4-[3-(2-ethoxy-5-methyl-phenyl)-ureido]-phenyl}-piperazine-1-carboxylic acid (2-chloro-4-methyl-phenyl)-amide], the melting point lay within 119 to 122 °C. Further, the inhibition at 0.1 µg/mL in data set [1] is at least 50%.
For `CCOc1ccccc1NC(=O)Nc1ccc(N2CCN(C(=O)Nc3ccc(C)cc3Cl)CC2)cc1` [Example 121, 4-{4-[3-(2-ethoxy-phenyl)-ureido]-phenyl}-piperazine-1-carboxylic acid (2-chloro-4-methyl-phenyl)-amide], in that order: 179 to 181 °C and at least 50%.
For `CCOc1ccc(F)cc1NC(=O)Nc1ccc(N2CCN(C(=O)Nc3ccc(C)cc3Cl)CC2)cc1` [Example 122, 4-{4-[3-(2-ethoxy-5-fluoro-phenyl)-ureido]-phenyl}-piperazine-1-carboxylic acid (2-chloro-4-methyl-phenyl)-amide], in that order: 155 to 157 °C and at least 50%.
In the same order, the values of `COc1ccc(F)cc1NC(=O)Nc1ccc(N2CCN(C(=O)Nc3ccc(C)cc3Cl)CC2)cc1` [Example 123, 4-{4-[3-(5-fluoro-2-methoxy-phenyl)-ureido]-phenyl}-piperazine-1-carboxylic acid (2-chloro-4-methyl-phenyl)-amide] are 233 to 235 °C and at least 50%.
The compound `COc1ccccc1NC(=O)Nc1ccc(N2CCN(C(=O)Nc3c(C)cccc3Cl)CC2)cc1` [Example 124, 4-{4-[3-(2-methoxy-phenyl)-ureido]-phenyl}-piperazine-1-carboxylic acid (2-chloro-6-methyl-phenyl)-amide] showed a melting point of 245 to 247 °C. Further, the inhibition at 0.1 µg/mL in data set [1] is at least 50%.
For `Cc1cccc(Cl)c1NC(=O)N1CCN(c2ccc(NC(=O)Nc3ccccc3F)cc2)CC1` [Example 125, 4-{4-[3-(2-fluoro-phenyl)-ureido]-phenyl}-piperazine-1-carboxylic acid (2-chloro-6-methyl-phenyl)-amide], in that order: 232 to 234 °C and at least 50%.
For `Cc1cccc(Cl)c1NC(=O)N1CCN(c2ccc(NC(=O)Nc3ccccc3Cl)cc2)CC1` [Example 126, 4-{4-[3-(2-chloro-phenyl)-ureido]-phenyl}-piperazine-1-carboxylic acid (2-chloro-6-methyl-phenyl)-amide], in that order: > 260 °C (dec.) and at least 50%.
On to `Cc1ccccc1NC(=O)Nc1ccc(N2CCN(C(=O)Nc3c(C)cccc3Cl)CC2)cc1` [Example 127, 4-[4-(3-o-tolyl-ureido)-phenyl]-piperazine-1-carboxylic acid (2-chloro-6-methyl-phenyl)-amide], for which the melting point was > 260 °C (dec.). The inhibition at 0.1 µg/mL in data set [1] was at least 50%.
